Earlier results, collected in patent US20170258746A1, “ACETIC ACID/THYMOL COMPOSITIONS AND THEIR USE IN THE TREATMENT OF ONYCHOMYCOSIS” (Dr. Paul's Enterprises, LLC, priority 2008, published 2017).

Columns and labels:
[1] = oral, in children; American Family Physician vol. 63, no. 4, Feb. 15, 2001
onychomycosis = conditions: oral, Arch. Dermatol. 134(12) (December 1998)

SMILES | toxicity [1] | disease-free nail, % of patients (onychomycosis)
COC1=CC(=O)C[C@@H](C)[C@]12Oc1c(Cl)c(OC)cc(OC)c1C2=O [griseofulvin] | some level of toxicity | 
CN(C/C=C/C#CC(C)(C)C)Cc1cccc2ccccc12 [terbinafine] |  | 35-50%
